From PubChem BioAssay AID330 (DTP/NCI, 2004) come the findings set out here.

This test concerns P388 leukemia ip, CD2F1 mice, survival T/C. In words: NCI In Vivo Anticancer Drug Screen. Data for tumor model P388 Leukemia (intraperitoneal) in CD2F1 (CDF1) mice. The conditions noted are these: endpoint: median survival time, higher = longer survival. An outline of the steps: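 Mice carrying the transplanted tumor received test compound or vehicle. Survival was recorded in each group, and the value is the treated-group measurement divided by that of the vehicle-treated control group.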

Setting [1] is: dose: 50.0 mg/kg/injection, schedule: Q01DX009 (ip), vehicle: saline with Tween-80.
[2] abbreviates: dose: 100.0 mg/kg/injection, schedule: Q01DX009 (ip), vehicle: saline with Tween-80.
Setting [3] is: dose: 200.0 mg/kg/injection, schedule: Q01DX009 (ip), vehicle: saline with Tween-80.
[4] abbreviates: dose: 50.0 mg/kg/injection, schedule: Q01DX005 (ip), vehicle: saline with Tween-80.
[5] abbreviates: dose: 100.0 mg/kg/injection, schedule: Q01DX005 (ip), vehicle: saline with Tween-80.
Setting [6] is: dose: 200.0 mg/kg/injection, schedule: Q01DX005 (ip), vehicle: saline with Tween-80.
Where [7] appears, read: dose: 5.0 mg/kg/injection, schedule: Q01DX009 (ip), vehicle: saline with Tween-80.
Setting [8] is: dose: 10.0 mg/kg/injection, schedule: Q01DX009 (ip), vehicle: saline with Tween-80.
Where [9] appears, read: dose: 100.0 mg/kg/injection, schedule: Q01DX009 (ip), vehicle: saline.
[10] abbreviates: dose: 50.0 mg/kg/injection, schedule: Q01DX005 (ip), vehicle: Klucel (hydroxypropylcellulose) (HPC).
[11] abbreviates: dose: 100.0 mg/kg/injection, schedule: Q01DX005 (ip), vehicle: Klucel (hydroxypropylcellulose) (HPC).
Where [12] appears, read: dose: 200.0 mg/kg/injection, schedule: Q01DX005 (ip), vehicle: Klucel (hydroxypropylcellulose) (HPC).

Several values for one entry are separate records, joined by “and”; a condition that tells them apart may be missing. Identical values can stand only once. Toxic doses and inconclusive results are not listed. Peptide text beside a SMILES is read from it.

Take `COc1ccc(-c2c(C#N)cnc(C)c2C)c(OCc2ccccc2)c1OC`: the T/C is 106 % of control (dose: 12.5 mg/kg/injection, schedule: Q01DX009 (ip), vehicle: other); 101 % of control (dose: 25.0 mg/kg/injection, schedule: Q01DX009 (ip), vehicle: other); 105 % of control (dose: 50.0 mg/kg/injection, schedule: Q01DX009 (ip), vehicle: other); 98 % of control (dose: 100.0 mg/kg/injection, schedule: Q01DX009 (ip), vehicle: other); 92 % of control (dose: 200.0 mg/kg/injection, schedule: Q01DX009 (ip), vehicle: other).
`CCCC(=O)Nc1ncc([N+](=O)[O-])s1`: the T/C runs as follows: under setting [1], 95 % of control; under setting [2], 100 % of control; under setting [3], 90 % of control.
With `CN(CC(=O)NN)c1ccccc1`, the T/C was 93 % of control under setting [4], 95 % of control under setting [5] and 95 % of control under setting [6].
`O=C(NNC(=O)C(Cl)Cl)c1ccccn1`: the T/C is 99 % of control (dose: 50.0 mg/kg/injection, schedule: Q01DX009 (ip), vehicle: Klucel (hydroxypropylcellulose) (HPC)); 101 % of control (dose: 100.0 mg/kg/injection, schedule: Q01DX009 (ip), vehicle: Klucel (hydroxypropylcellulose) (HPC)); 109 % of control (dose: 200.0 mg/kg/injection, schedule: Q01DX009 (ip), vehicle: Klucel (hydroxypropylcellulose) (HPC)).
With `C=CC(O)C(C)C(=O)O` (stereo not given), the T/C by setting is: (dose: 6.25 mg/kg/injection, schedule: Q01DX005 (ip), vehicle: saline) 93 % of control; (dose: 12.5 mg/kg/injection, schedule: Q01DX005 (ip), vehicle: saline) 95 % of control; (dose: 25.0 mg/kg/injection, schedule: Q01DX005 (ip), vehicle: saline) 90 % of control; under setting [5], 98 % of control; under setting [6], 98 % of control.
`COc1ccc(/C=C2\C=C3OCOC3=CC2=O)cc1`: the T/C is 100 % of control (dose: 2.5 mg/kg/injection, schedule: Q01DX009 (ip), vehicle: saline with Tween-80); 100 % of control under setting [7]; 100 % of control under setting [8].
Regarding `NN1C(=O)CCC1=O`, the T/C under setting [1] was 94 % of control, the T/C under setting [2] is 97 % of control and the T/C under setting [3] was 92 % of control.
As for `Nc1ccn([C@@H](C=O)O[C@@H](C=O)CO)c(=O)n1`, the T/C is 112 % of control (dose: 44.0 mg/kg/injection, schedule: Q04DX003 (ip), vehicle: saline); 120 % of control (dose: 66.0 mg/kg/injection, schedule: Q04DX003 (ip), vehicle: saline); 150 % of control under setting [9]; 180 % of control (dose: 200.0 mg/kg/injection, schedule: Q01DX009 (ip), vehicle: saline).
Turning to `Cc1ccc(S(=O)(=O)NC(=O)O/N=C/c2ccco2)cc1`, the T/C under setting [10] is 98 % of control, the T/C under setting [11] was 98 % of control and the T/C under setting [12] is 100 % of control.
As to `CC(C)CC(NC(=O)C(Cc1ccccc1)NC(=O)CNC(=O)CN)C(=O)O` (stereo not given) (H-GGFL-OH; configuration not given here), the T/C is, setting by setting: (dose: 12.5 mg/kg/injection, schedule: Q01DX005 (ip), vehicle: water) 100 % of control; (dose: 25.0 mg/kg/injection, schedule: Q01DX005 (ip), vehicle: water) 100 % of control; (dose: 50.0 mg/kg/injection, schedule: Q01DX005 (ip), vehicle: water) 96 % of control; (dose: 100.0 mg/kg/injection, schedule: Q01DX005 (ip), vehicle: water) 102 % of control; (dose: 200.0 mg/kg/injection, schedule: Q01DX005 (ip), vehicle: water) 96 % of control.
Turning to `COc1cc2c(cc1OC)C(c1ccccc1)ON(C)CC2` (stereo not given), the T/C reads like this: under setting [10], 100 % of control; under setting [11], 99 % of control; under setting [12], 104 % of control.
Regarding `COc1cc(CC2C(=O)OCC2Cc2cc(OC)c3c(c2)C(CO)C(c2ccc(O)c(OC)c2)O3)ccc1O` (stereo not given), the T/C under setting [7] is 102 % of control; the T/C under setting [8] was 118 % of control; the T/C (dose: 20.0 mg/kg/injection, schedule: Q01DX009 (ip), vehicle: saline with Tween-80) was 101 % of control; the T/C (dose: 40.0 mg/kg/injection, schedule: Q01DX009 (ip), vehicle: saline with Tween-80) is 108 % of control.
Take `CN(C)S(=O)(=O)c1ccccc1N=C=S`: the T/C reads like this: under setting [1], 117 % of control; under setting [2], 117 % of control.
In the case of `C=C(C)c1cc2cc(C(C)=O)ccc2o1`, the T/C reads like this: (dose: 2.25 mg/kg/injection, schedule: Q01DX009 (ip), vehicle: Klucel (hydroxypropylcellulose) (HPC)) 108 % of control; (dose: 4.5 mg/kg/injection, schedule: Q01DX009 (ip), vehicle: Klucel (hydroxypropylcellulose) (HPC)) 115 % of control; (dose: 9.0 mg/kg/injection, schedule: Q01DX009 (ip), vehicle: Klucel (hydroxypropylcellulose) (HPC)) 97 % of control; (dose: 18.0 mg/kg/injection, schedule: Q01DX009 (ip), vehicle: Klucel (hydroxypropylcellulose) (HPC)) 115 % of control; (dose: 36.0 mg/kg/injection, schedule: Q01DX009 (ip), vehicle: Klucel (hydroxypropylcellulose) (HPC)) 113 % of control.
With `COc1cc(C(=O)Nc2ccc(S(=O)(=O)Nc3nc(C)cc(C)n3)cc2)cc(OC)c1OC`, the T/C reads like this: under setting [4], 98 % of control; under setting [5], 88 % of control; under setting [6], 103 % of control.
In the case of `O=C(O)c1cccc(C(=O)O)c1O`, the T/C by setting is: (dose: 50.0 mg/kg/injection, schedule: Q01DX001 (ip), vehicle: saline with Tween-80) 102 % of control; under setting [1], 100 % of control; (dose: 100.0 mg/kg/injection, schedule: Q01DX001 (ip), vehicle: saline with Tween-80) 105 % of control; under setting [2], 103 % of control; (dose: 200.0 mg/kg/injection, schedule: Q01DX001 (ip), vehicle: saline with Tween-80) 110 % of control; under setting [3], 94 % of control.
Turning to `C=C1C(=O)C23C(O)CC4C(C)(C)[C@@H](OC(C)=O)CCC4(C)[C@]2(O)CCC1[C@@H]3O` (stereo not given in full), the T/C by setting is: (dose: 5.0 mg/kg/injection, schedule: Q01DX005 (ip), vehicle: Klucel (hydroxypropylcellulose) (HPC)) 106 % of control; (dose: 10.0 mg/kg/injection, schedule: Q01DX005 (ip), vehicle: Klucel (hydroxypropylcellulose) (HPC)) 110 % of control; (dose: 20.0 mg/kg/injection, schedule: Q01DX005 (ip), vehicle: Klucel (hydroxypropylcellulose) (HPC)) 112 % of control; (dose: 40.0 mg/kg/injection, schedule: Q01DX005 (ip), vehicle: Klucel (hydroxypropylcellulose) (HPC)) 114 % of control.
With `CC(C)(C)c1cc(O)cc(C(=O)O)c1O`, the T/C by setting is: under setting [1], 101 % of control; under setting [2], 100 % of control.
As to `Cc1ccc(NCCNCCO)c2c(=O)c3ccc(O)cc3sc12`, the T/C under setting [1] was 174 % of control.
Regarding `O=Cc1cc(O)ccc1O`, under setting [9], the T/C was 103 % of control and 114 % of control.
As to `C=C(C)c1nc(N)nc(-c2cccc(-c3nc(N)nc(C(=C)C)n3)c2)n1`, the T/C runs as follows: under setting [10], 95 % of control; under setting [11], 99 % of control; under setting [12], 100 % of control.
For `Cc1ccc(/C=C/[N+](=O)[O-])cc1`, the T/C (dose: 6.25 mg/kg/injection, schedule: Q01DX009 (ip), vehicle: saline sonified) is 100 % of control; the T/C (dose: 12.5 mg/kg/injection, schedule: Q01DX009 (ip), vehicle: saline sonified) was 100 % of control; the T/C (dose: 25.0 mg/kg/injection, schedule: Q01DX009 (ip), vehicle: saline sonified) is 100 % of control.
As for `COc1ccc(C(c2cc3c(cc2O)OCO3)N2CCCCC2)cc1OC` (stereo not given), the T/C runs as follows: (dose: 60.0 mg/kg/injection, schedule: Q01DX005 (ip), vehicle: saline with Tween-80) 107 % of control; (dose: 120.0 mg/kg/injection, schedule: Q01DX005 (ip), vehicle: saline with Tween-80) 110 % of control; (dose: 240.0 mg/kg/injection, schedule: Q01DX005 (ip), vehicle: saline with Tween-80) 120 % of control.
Consider `O=C1c2ccccc2C(=O)N1CCCN1CCOCCOCCN(CCCN2C(=O)c3ccccc3C2=O)CCOCCOCC1`, for which the T/C was 100 % of control (dose: 25.0 mg/kg/injection, schedule: Q04DX002 (ip), vehicle: saline + Tween-80 + alcohol); 104 % of control (dose: 50.0 mg/kg/injection, schedule: Q04DX002 (ip), vehicle: saline + Tween-80 + alcohol); 102 % of control and 95 % of control (dose: 100.0 mg/kg/injection, schedule: Q04DX002 (ip), vehicle: saline + Tween-80 + alcohol).
